System: IL-18
Test: Evaluation of skin sensitization potential (IL-18 production in HEK)
Assay type: cell-based, human
Conditions: HEK lysate, 16 h
From the text: It is possible for a material to not be cytotoxic, and yet be unsafe due to provoking an allergic reaction upon skin contact. Typically, initial exposure to an allergen sensitizes the immune system, and following exposures cause an allergic response. Recent progress in understanding the mechanisms of skin sensitization identified interleukin-18 (IL-18) production in normal human epidermal keratinocytes (HEK) as a useful biomarker for skin contact sensitization (Corsini, et al., “Use of IL-18 Production In a Human Keratinocyte Cell Line to Discriminate Contact Sensitizers from Irritants and Low Molecular Weight Respiratory Allergens.” Toxicol In Vitro. 2009 August; 23(5):789-96; Teunis, et al., “Transfer of a Two-tiered Keratinocyte Assay: IL-18 Production by NCTC2544 to Determine the Skin Sensitizing Capacity and Epidermal Equivalent Assay to Determine Sensitizer Potency.” Toxicol In Vitro. 2013 April; 27(3):1135-50). […] Thus, IL-18 production in HEK was evaluated to determine sensitization potential.
Normal human adult epidermal keratinocytes (HEK) were cultured as described above for the cytoxicity evaluation. […] The cell lysates were collected, and IL-18 was quantified using Human IL-18 ELISA Kit (Catalog #7620, produced by MBL International Co., Woburn, Mass., USA). […] Fold changes of IL-18 levels between test articles and respective vehicle controls were calculated and compared to pPD. […]

Structure (SMILES): Nc1ccc(N)cc1 [benchmark sensitizer, para-phenylenediamine]
- IL18 Maximum fold change vs vehicle control: 7.8 fold)
- IL18 Maximum fold change vs vehicle control (listed as para-phenylenediamine (pPD)): significantly induced IL-18
